Data reported in US6620911B1, “Anti-cryptococcal peptides” (Arizona Board of Regents, acting for and on behalf of …, priority 1998, dated 2003).
≈ marks a conversion by molar mass, not a printed value. Like-named read-outs stand apart in the source and are kept apart here.

How the values were obtained:
[1] = tested on: Cryptococcus neoformans; experiment: Broth macrodilution assay (MIC, MFC), ATCC strains; assay type: cell-based
Experimental: (§1) Dolastatin 10 and modifications were screened against yeasts by the broth macrodilution assay according to the NCCLS (National Committee for Clinical Laboratory Standards, Reference Method for Broth Dilution Antifungal Susceptibility Testing of Yeasts: Approved Standard M27-A, NCCLS, Wayne, Pa., 1997). Yeasts were suspended and diluted as recommended to yield final inocula ranging from 0.5-2.5×10^3 colony forming units (CFU)/ml. Tests were performed in sterile 12×75 mm plastic tubes containing two-fold dilutions of the peptides in 0.165 M morpholinepropanesulfonic acid (MOPS)-buffered RPMI 1640 medium (pH 7.0). One tube was left drug-free for a turbidity control. Tubes were incubated without agitation at 35° C. (25° C. for C. albidus and C. laurentii). MICs were determined after 72 h for Cryptococcus, and after
(§2) 48 h for other yeast genera. The MIC was defined as the lowest concentration of compound that inhibited all visible growth of the test organism.
(§3) Minimum fungicidal concentrations (MFCs) were determined by subculturing 0.1 ml from each tube with no visible growth in the MIC broth macrodilution series onto drug-free SDA plates. The plates were incubated at 35° C. for 48 h for Cryptococcus (25° C. for C. alhidus and C. laurentii), and 35° C. for 24 h for all other yeast and filamentous fungi.

[2] = tested on: Candida glabrata; experiment: Disk diffusion susceptibility testing; assay type: cell-based; details: ATCC 90030
Experimental: (§4) Antimicrobial activity was assayed by disk susceptibility tests according to the NCCLS (National Committee for Clinical Laboratory Standards, Performance Standards for Antimicrobial Disk Susceptibility Tests-Sixth Edition: Approved standard M2-A6, NCCLS, Wayne, Pa., 1997). Inocula were adjusted to a density of 0.10 at 625 nm in SDA broth, and spread on SDA plates. Excess moisture was allowed to absorb for 10 min before applying dried disks containing two-fold dilutions of the drugs. Test plates were incubated at 35° C. (25° C. for C. albidus and C. laurentii), and zones of inhibition recorded after 48 h. The minimum inhibitory concentration (MIC) was defined as the lowest concentration of drug resulting in a clear zone of growth inhibition. Disk susceptibility testing of Staphylococcus aureus, Enterococcus faecalis, Escherichia coli and Neisseria gonorrhoeae was also performed.

[3] = tested on: Cryptococcus neoformans; experiment: Disk diffusion susceptibility testing; assay type: cell-based; details: ATCC 90112
Experimental: as §4

[4] = tested on: Candida albicans; experiment: Disk diffusion susceptibility testing; assay type: cell-based; details: ATCC 90028
Experimental: as §4

[5] = tested on: fluconazole-resistant Cryptococcus neoformans; assay type: cell-based
Text: Clinical isolates of C. neoformans were obtained from patient cerebrospinal fluid, blood, bone marrow, sputum, bronchial lavage and wound infections at the University of Virginia Medical Center, Strains clinically resistant to fluconazole (See: Jessup, C. J. et al, 1997; Poster #F-88, 37th ICAAC, Toronto, Canada) were provided by the Center for Medical Mycology, Case Western Reserve University. Yeast strains (except for C. albidus and C. laurentii) were maintained by single colony transfer on Sabouraud Dextrose Agar (SDA), pH 5.6 at 35° C. Cryptococcus albidus, C. laurentii and C. uniguttulatus (#66033) were maintained on SDA, pH 6.6 at 25° C., C. uniguttulatus (#34143) and C. ater on Yeast Morphology (YM) agar at 25° C. and filamentous fungi were maintained on Potato Dextrose Agar (PDA) slants at 35° C.
as §1, §2, §3

[6] = dog plasma, 37° C.; cited from earlier work
[7] = mice, intravenous injection; cited from earlier work
[8] = tested on: Aspergillus fumigatus; experiment: Broth macrodilution susceptibility testing of filamentous fungi; assay type: cell-based; details: ATCC 96918
Experimental: (§5) Broth macrodilution susceptibility testing of Aspergillus fumigatus and Rhizopus oligosporus was performed according to a proposed standardized procedure (Espinel-Ingroff et al., Multicenter evaluation of a proposed standardized procedure for antifungal susceptibility testing of filamentous fungi, J Clin Microbiol 1997, 35: 139-43) with slight modification. To induce conidium and sporangiospore formation, A. fumigatus and R. oligosporus were grown on PDA slants at 35° C. for 6 days. Fungal slants were covered with 1 ml of sterile 0.85% NaCl, and suspensions made by gently probing the colonies with the tip of a sterile pasteur pipette. The resulting mixture of hyphal fragments and conidia or sporangiospores was withdrawn, transferred to a sterile clear microfuge tube, and heavy particles were allowed to settle for 10 min. […] Susceptibility to the synthetic peptides was then determined by broth macrodilution assays as described above for the yeast cultures. MICs for the filamentous fungi were read after 24 h.
(§6) Minimum fungicidal concentrations (MFCs) were determined by subculturing 0.1 ml from each tube with no visible growth in the MIC broth macrodilution series onto drug-free SDA plates. […]

[9] = tested on: Rhizopus oligosporus; experiment: as above; assay type: cell-based; details: ATCC 22959
Experimental: as §5, §6

[10] = human plasma, 37° C.; cited from earlier work
[11] = cited from earlier work
[12] = tested on: Rhodotorula mucilaginosa; experiment: Broth macrodilution assay; assay type: cell-based; details: ATCC 9449
Experimental: as §1, §2, §3

[13] = tested on: Candida parapsilosis; experiment: Broth macrodilution assay; assay type: cell-based; details: ATCC 22019
Experimental: as §1, §2, §3

[14] = tested on: Candida lusitaniae; experiment: Broth macrodilution assay; assay type: cell-based; details: ATCC 42720
Experimental: as §1, §2, §3

[15] = tested on: Candida glabrata; experiment: Broth macrodilution assay; assay type: cell-based; details: ATCC 90030
Experimental: as §1, §2, §3

[16] = tested on: Cryptococcus laurentii; experiment: Broth macrodilution assay; assay type: cell-based
Experimental: as §1, §2, §3

[17] = tested on: Cryptococcus uniguttulatus; experiment: Broth macrodilution assay; assay type: cell-based
Experimental: as §1, §2, §3

[18] = tested on: Cryptococcus albidus; experiment: Broth macrodilution assay; assay type: cell-based
Experimental: as §1, §2, §3

[19] = tested on: Cryptococcus ater; experiment: Broth macrodilution assay; assay type: cell-based; details: ATCC 14247
Experimental: as §1, §2, §3

[20] = tested on: Candida albicans; experiment: Broth macrodilution assay; assay type: cell-based; details: ATCC 90028
Experimental: as §1, §2, §3

[21] = tested on: Cryptococcus laurentii; experiment: Disk diffusion susceptibility testing; assay type: cell-based; details: ATCC 66036
Experimental: as §4

[22] = tested on: Cryptococcus albidus; experiment: Disk diffusion susceptibility testing; assay type: cell-based; details: ATCC 66030
Experimental: as §4

[23] = mouse plasma, 37° C.; cited from earlier work
[24] = tested on: Cryptococcus neoformans #90112; experiment: Effect of host factors (pH, human serum) on broth macrodilution MICs and MFCs; assay type: cell-based
Experimental: as §1, §2, §3
Broth macrodilution assays were performed with RPMI prepared at pH 5, pH 6 and pH 7, and in RPMI, with and without 50% normal human serum (Lampire Biological Labs). Cryptococcus neoformans #90112 was used in each case.

CCC(C)C(C(CC(=O)N1CCC[C@H]1C(OC)C(C)C(=O)NC(Cc1ccccc1)C(=O)Nc1nc(SC)ns1)OC)N(C)C(=O)[C@@H](NC(=O)[C@H](C(C)C)N(C)C)C(C)C (some centres unmarked) [1c]
MFC relative to MIC ([1]; C. neoformans #14116): sixteenfold greater than MICs
MIC [2]: >100 μg/disk
MIC [3]: 1.56-3.12 μg/disk
MIC [4]: >100 μg/disk

CC[C@H](C)[C@@H]([C@@H](CC(=O)N1CCC[C@H]1[C@H](OC)[C@@H](C)C(=O)N[C@@H](Cc1ccccc1)c1nccs1)OC)N(C)C(=O)[C@@H](NC(=O)[C@H](C(C)C)N(C)C)C(C)C [1a, dolastatin 10]
MFC ([1]; ATCC 14116): 6.25 µg/mL (≈ 7.96 µM)
MIC ([1]; ATCC 14116): 3.12 µg/mL (≈ 3.97 µM)
MFC ([1]; ATCC 32045): 1.56 µg/mL (≈ 1.99 µM)
MIC ([1]; ATCC 32045): 0.78 µg/mL (≈ 0.993 µM)
MFC ([1]; ATCC 66031): 1.56 µg/mL (≈ 1.99 µM)
MIC ([1]; ATCC 66031): 0.78 µg/mL (≈ 0.993 µM)
MFC ([1]; ATCC 90112): 1.56 µg/mL (≈ 1.99 µM)
MIC ([1]; ATCC 90112): 0.78 µg/mL (≈ 0.993 µM)
MFC ([5]; strain 94-2011): 1.56 µg/mL (≈ 1.99 µM)
MIC ([5]; strain 94-2011): 0.78 µg/mL (≈ 0.993 µM)
MFC ([5]; strain 94-2406): 0.0975 µg/mL (≈ 0.124 µM)
MIC ([5]; strain 94-2406): 0.0487 µg/mL (≈ 0.062 µM)
MFC ([5]; strain 94-2483): 0.39 µg/mL (≈ 0.497 µM)
MIC ([5]; strain 94-2483): 0.195 µg/mL (≈ 0.248 µM)
MFC ([5]; strain 95-2792): 3.12 µg/mL (≈ 3.97 µM)
MIC ([5]; strain 95-2792): 0.78 µg/mL (≈ 0.993 µM)
stable in plasma [6]: at least 24 h
estimated elimination half-life [7]: 5.6 h
MIC [8]: >50 µg/mL
MIC [9]: >50 µg/mL
stable in plasma [10]: at least 24 h
toxicity in patients with advanced solid tumors ([11]; doses up to 200 μg/m^2): minimal toxicity
toxicity in human cancer clinical trials ([11]; doses up to 455 μg/m^2): minimal toxicity
MIC [12]: >50 µg/mL
MIC [13]: >50 µg/mL
MIC [14]: >50 µg/mL
MFC [15]: >50 µg/mL
MIC [15]: >50 µg/mL
MIC ([16]; ATCC 18803): >50 µg/mL
MIC ([16]; ATCC 34142): >50 µg/mL
MIC ([16]; ATCC 66036): >50 µg/mL
MIC ([17]; ATCC 34143): >50 µg/mL
MIC ([17]; ATCC 66033): >50 µg/mL
MIC ([18]; ATCC 10666): >50 µg/mL
MIC ([18]; ATCC 34140): >50 µg/mL
MIC ([18]; ATCC 66030): >50 µg/mL
MIC [19]: >50 µg/mL
MFC [20]: >25 µg/mL
MIC [20]: >50 µg/mL
MIC [2]: >100 μg/disk
MIC [21]: >100 μg/disk
MIC [22]: >100 μg/disk
MIC [3]: 25-50 μg/disk
MIC [4]: >100 μg/disk
stable in plasma [23]: at least 24 h
MFC ([24]; 50% human serum): 1.56 µg/mL (≈ 1.99 µM)
MIC ([24]; 50% human serum): 0.78 µg/mL (≈ 0.993 µM)
MFC ([24]; RPMI pH 5): >50 µg/mL
MIC ([24]; RPMI pH 5): >50 µg/mL
MFC ([24]; RPMI pH 6): 25 µg/mL (≈ 31.8 µM)
MIC ([24]; RPMI pH 6): 6.25 µg/mL (≈ 7.96 µM)
MFC ([24]; RPMI pH 7): 1.56 µg/mL (≈ 1.99 µM)
MIC ([24]; RPMI pH 7): 0.78 µg/mL (≈ 0.993 µM)
MFC ([24]; no serum): 1.56 µg/mL (≈ 1.99 µM)
MIC ([24]; no serum): 0.78 µg/mL (≈ 0.993 µM)
